Usually IC50 stands for the concentration that inhibits the measured activity by half.

Each structure is given as a SMILES string.

The source of these data is US8962608B2, “Cycloalkylnitrile pyrazole carboxamides as janus kinase inhibitors” (Merck Sharp & Dohme Corp., priority 2011, dated 2015).
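Also: biochemical assay with HTRF read-out.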

For this assay, the target named is JAK1 (recombinant purified GST-tagged catalytic domain) (Homo sapiens (Human), UniProt P23458). The assay is described as follows: biochemical.
Chain of JAK1 (recombinant purified GST-tagged catalytic domain) (P23458 875-1153): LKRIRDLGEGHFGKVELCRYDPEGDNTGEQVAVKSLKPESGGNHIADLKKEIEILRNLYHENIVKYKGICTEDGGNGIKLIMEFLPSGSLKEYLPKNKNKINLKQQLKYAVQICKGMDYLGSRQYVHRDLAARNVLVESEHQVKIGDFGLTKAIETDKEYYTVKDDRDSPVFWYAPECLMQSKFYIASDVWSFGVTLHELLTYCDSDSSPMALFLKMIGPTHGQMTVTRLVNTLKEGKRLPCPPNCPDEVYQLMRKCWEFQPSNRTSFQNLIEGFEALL
Consider `CC(C)(C)OC(=O)[C@H]1CCC(n2cc(C(N)=O)c(Nc3ccc(F)cc3)n2)[C@@H](C#N)C1` (mixture of isomers) [Example 7-1, tert-Butyl (1S,3S,4S and 1R,3R,4R)-4-{4-carbamoyl-3-[(4-fluorophenyl)amino]-1H-pyrazol-1-yl}-3-cyanocyclohexanecarboxylate], for which the IC50 amounted to 17 nM.

`N#C[C@@H]1CC2(CCC1n1cc(C(N)=O)c(Nc3ccnc(F)c3)n1)CC2` (mixture of isomers) [Example 11-7, 1-((5R,6R and 5S,6S)-5-cyanospiro[2.5]octan-6-yl)-3-((2-fluoropyridin-4-yl)amino)-1H-pyrazole-4-carboxamide]: the IC50 came to 5 nM.

Take `N#C[C@H]1C[C@H](O)CCC1n1cc(C(N)=O)c(Nc2ccnc(F)c2)n1` (mixture of isomers) [Example 15, 1-[(1S,2S,4R and 1R,2R,4S)-2-Cyano-4-hydroxycyclohexyl]-3-[(2-fluoropyridin-4-yl)amino]-1H-pyrazole-4-carboxamide]: the IC50 worked out at 3 nM. Next, `N#C[C@H]1CCCC[C@@H]1n1cc(C(N)=O)c(Nc2ccnc(Cl)c2)n1` (racemic) [Example 17-7, 3-[(2-chloropyridin-4-yl)amino]-1-[(1S,2S and 1R,2R)-2-cyanocyclohexyl]-1H-pyrazole-4-carboxamide]: 4 nM; `N#C[C@H]1CCCCC1n1cc(C(N)=O)c(Nc2ccc(S(=O)(=O)CC(F)(F)F)cc2)n1` (mixture of isomers) [Example 17-12, 1-[(1S,2S and 1R,2R)-2-cyanocyclohexyl]-3-({4-[(2,2,2-trifluoroethyl)sulfonyl]phenyl}amino)-1H-pyrazole-4-carboxamide]: 0.49 nM; `N#C[C@@H]1CCCC[C@@H]1n1cc(C(N)=O)c(Nc2ccc(F)nc2)n1` (racemic) [Example 17-24, 1-[(1S,2R and 1R,2S)-2-cyanocyclohexyl]-3-[(6-fluoropyridin-3-yl)amino]-1H-pyrazole-4-carboxamide]: 33 nM.

As to `N#C[C@H]1CCCCC1n1cc(C(N)=O)c(Nc2ccc3c(c2)C=CS3(=O)=O)n1` (mixture of isomers) [Example 17-63, 1-[(1S,2S and 1R,2R)-2-cyanocyclohexyl]-3-[(1,1-dioxido-1-benzothiophen-5-yl)amino]-1H-pyrazole-4-carboxamide], the IC50 was 0.45 nM. Then `N#C[C@H]1CCCCC1n1cc(C(N)=O)c(Nc2ccc3c(c2)CCS3(=O)=O)n1` (mixture of isomers) [Example 20, 1-[(1S,2S and 1R,2R)-2-Cyanocyclohexyl]-3-[(1,1-dioxido-2,3-dihydro-1-benzothiophen-5-yl)amino]-1H-pyrazole-4-carboxamide], with 0.4 nM; and `CNC1CCC(n2cc(C(N)=O)c(Nc3ccc(S(=O)(=O)C(F)(F)F)cc3)n2)[C@@H](C#N)C1` (mixture of isomers) [Example 27-6, 1-[(1S,2S and 1R,2R)-2-cyano-4-(methylamino)cyclohexyl]-3-({4-[(trifluoromethyl)sulfonyl]phenyl}amino)-1H-pyrazole-4-carboxamide], with 0.08 nM; and `CN(C)[C@@H]1CCC(n2cc(C(N)=O)c(Nc3ccc(S(=O)(=O)C(F)(F)F)cc3)n2)[C@@H](C#N)C1` (mixture of isomers) [Example 27-7, 1-[(1S,2S,4R and 1R,2R,4S)-2-cyano-4-(dimethylamino)cyclohexyl]-3-({4-[(trifluoromethyl)sulfonyl]phenyl}amino)-1H-pyrazole-4-carboxamide], with 0.4 nM.

As to `CN(C)[C@H]1CCC(n2cc(C(N)=O)c(Nc3ccc(S(=O)(=O)C(F)(F)F)cc3)n2)[C@@H](C#N)C1` (mixture of isomers) [Example 27-8, 1-[(1S,2S,4S and 1R,2R,4R)-2-cyano-4-(dimethylamino)cyclohexyl]-3-({4-[(trifluoromethyl)sulfonyl]phenyl}amino)-1H-pyrazole-4-carboxamide], the IC50 came out at 0.3 nM. `CN[C@H]1CCC(n2cc(C(N)=O)c(Nc3ccc(S(=O)(=O)C(F)(F)F)cc3)n2)[C@@H](C#N)C1` (mixture of isomers) [Example 27-9, 1-[(1S,2S,4S and 1R,2R,4R)-2-cyano-4-(methylamino)cyclohexyl]-3-({4-[(trifluoromethyl)sulfonyl]phenyl}amino)-1H-pyrazole-4-carboxamide]: the IC50 was 3 nM. `N#C[C@H]1CC(NCCO)CCC1n1cc(C(N)=O)c(Nc2ccc(S(=O)(=O)C(F)(F)F)cc2)n1` (mixture of isomers) [Example 27-15, 1-{(1S,2S and 1R,2R)-2-cyano-4-[(2-hydroxyethyl)amino]cyclohexyl}-3-({4-[(trifluoromethyl)sulfonyl]phenyl)amino)-l/f-pyrazolc-4-carboxamide]: the IC50 was 0.35 nM.

On to `CC(C)NC(=O)O[C@@H]1CCC(n2cc(C(N)=O)c(Nc3ccc(F)cc3)n2)[C@@H](C#N)C1` (mixture of isomers) [Example 34-4, (1R,3S,4S and 1S,3R,4R)-4-{4-carbamoyl-3-[(4-fluorophenyl)amino]-1H-pyrazol-1-yl}-3-cyanocyclohexyl propan-2-ylcarbamate], for which the IC50 worked out at 2 nM. Next, `CC(C)NC(=O)O[C@H]1CCC(n2cc(C(N)=O)c(Nc3ccc(F)cc3)n2)[C@@H](C#N)C1` (mixture of isomers) [Example 34-8, (1S,3S,4S and 1R,3R,4R)-4-{4-carbamoyl-3-[(4-fluorophenyl)amino]-1H-pyrazol-1-yl}-3-cyanocyclohexyl propan-2-ylcarbamate]: 6 nM. Next, `N#C[C@H]1CCCC[C@@H]1n1cc(C(N)=O)c(Nc2ccc(F)nc2)n1` (single isomer, unassigned) [Example 17-19, 1-[(1S,2S or 1R,2R)-2-cyanocyclohexyl]-3-[(6-fluoropyridin-3-yl)amino]-1H-pyrazole-4-carboxamide]: 3 nM; `N#C[C@@H]1CCCC[C@H]1n1cc(C(N)=O)c(Nc2ccc(F)nc2)n1` (single isomer, unassigned) [Example 17-23, 1-[(1R,2R or 1S,2S)-2-cyanocyclohexyl]-3-[(6-fluoropyridin-3-yl)amino]-1H-pyrazole-4-carboxamide]: 11 nM; `CC(=O)c1ccc(Nc2nn([C@H]3CCCC[C@@H]3C#N)cc2C(N)=O)cc1` (single isomer, unassigned) [Example 17-27, 3-[(4-acetylphenyl)amino]-1-[(1S,2S or 1R,2R)-2-cyanocyclohexyl]-1H-pyrazole-4-carboxamide]: 0.3 nM. Next, `C[C@](O)(c1ccc(Nc2nn([C@H]3CCCC[C@@H]3C#N)cc2C(N)=O)cn1)C(F)(F)F` (single isomer, unassigned) [Example 17-34, 1-[(1S,2S or 1R,2R)-2-cyanocyclohexyl]-3-({6-[(1S or 1R)-2,2,2-trifluoro-1-hydroxy-1-methylethyl]pyridin-3-yl}amino)-1H-pyrazole-4-carboxamide]: 2 nM; `C[C@@](O)(c1ccc(Nc2nn([C@H]3CCCC[C@@H]3C#N)cc2C(N)=O)cn1)C(F)(F)F` (single isomer, unassigned) [Example 17-35, 1-[(1S,2S or 1R,2R)-2-cyanocyclohexyl]-3-({6-[(1R or 1S)-2,2,2-trifluoro-1-hydroxy-1-methylethyl]pyridin-3-yl}amino)-1H)-pyrazole-4-carboxamide]: 3 nM.
